Calls of active or inactive are those of the source. The rule behind the calls is not given here.
Legend:
[1] = biological target: T1, LC3/Epithelial discoidin domain-containing receptor 1 (Homo sapiens, UniProt Q08345+Q9BXW4+Q9GZQ8+Q9H492); assay: Autophagosome tethering activity at DDR1 in human NCI-H23 cells assessed as protein degradation at 0.3 uM measured after 24 hrs by immunoblotting analysis relative to control; format: cell-based
[2] = biological target: T1, LC3/Epithelial discoidin domain-containing receptor 1; assay: Autophagosome tethering activity at DDR1 in human NCI-H23 cells assessed as induction of protein degradation incubated for 12 hrs by immunoblotting analysis; format: cell-based
[3] = biological target: LC3/Discoidin domain-containing receptor 2 (Homo sapiens) (UniProt Q16832+Q9BXW4+Q9GZQ8+Q9H492); assay: Autophagosome tethering activity at DDR2 in human NCI-H23 cells assessed as induction of protein degradation at 100 to 1000 nM incubated for 24 hrs by immunoblotting analysis; format: cell-based; details: dose 100-1000 nM
[4] = biological target: T1, LC3/Epithelial discoidin domain-containing receptor 1; assay: Autophagosome tethering activity at DDR1 in human NCI-H23 cells assessed as induction of protein degradation at 1 uM by immunoblotting analysis; format: cell-based; details: time 1-24 hrs, TDE = time-dependent effect
[5] = biological target: T1, LC3/Epithelial discoidin domain-containing receptor 1; assay: Autophagosome tethering activity at DDR1 in human PANC-1 cells assessed as induction of protein degradation at 100 to 1000 nM measured after 24 hrs by immunoblotting analysis; format: cell-based; details: dose 100-1000 nM
[6] = biological target: T1, LC3/Epithelial discoidin domain-containing receptor 1; assay: Autophagosome tethering activity at DDR1 in human MIA PaCa-2 cells assessed as induction of protein degradation at 100 to 1000 nM measured after 24 hrs by immunoblotting analysis; format: cell-based; details: dose 100-1000 nM
NCI-H23 [7] = assay: Effect on DDR1 mRNA level in human NCI-H23 cells at 0.3 to 1 uM incubated for 24 hrs by qRT-PCR analysis; format: functional, cell-based; details: dose 0.3-1 µM
[8] = Half life in Sprague-Dawley rat at 2 mg/kg, iv measured up to 24 hrs by LC-MS/MS analysis; format: ADME, organism-based; details: in vivo
[9] = Tmax in Sprague-Dawley rat at 2 mg/kg, iv measured up to 24 hrs by LC-MS/MS analysis; format: ADME, organism-based; details: in vivo
[10] = Cmax in Sprague-Dawley rat at 2 mg/kg, iv measured up to 24 hrs by LC-MS/MS analysis; format: ADME, organism-based; details: in vivo
[11] = AUC(0 to t) in Sprague-Dawley rat at 2 mg/kg, iv measured up to 24 hrs by LC-MS/MS analysis; format: ADME, organism-based; details: in vivo
[12] = Clearance in Sprague-Dawley rat at 2 mg/kg, iv measured up to 24 hrs by LC-MS/MS analysis; format: ADME, organism-based; details: in vivo
[13] = Half life in Sprague-Dawley rat at 10 mg/kg, po measured up to 24 hrs by LC-MS/MS analysis; format: ADME, organism-based; details: in vivo
[14] = Tmax in Sprague-Dawley rat at 10 mg/kg, po measured up to 24 hrs by LC-MS/MS analysis; format: ADME, organism-based; details: in vivo
[15] = Cmax in Sprague-Dawley rat at 10 mg/kg, po measured up to 24 hrs by LC-MS/MS analysis; format: ADME, organism-based; details: in vivo
[16] = AUC(0 to t) in Sprague-Dawley rat at 10 mg/kg, po measured up to 24 hrs by LC-MS/MS analysis; format: ADME, organism-based; details: in vivo
[17] = Oral bioavailability in Sprague-Dawley rat at 10 mg/kg measured up to 24 hrs by LC-MS/MS analysis; format: ADME, organism-based; details: in vivo
[18] = biological target: T1, LC3/Epithelial discoidin domain-containing receptor 1; assay: Autophagosome tethering activity at DDR1 in human NCI-H23 cells assessed as induction of protein degradation at 1 uM measured for 1 to 24 hrs in presence of cycloheximide by immunoblotting analysis; format: cell-based; details: time 1-24 hrs
[19] = biological target: T1, LC3/Epithelial discoidin domain-containing receptor 1; assay: Autophagosome tethering activity at DDR1 in human NCI-H23 cells assessed as induction of protein degradation at 1 uM pretreated for 24 hrs followed by medium replacement with compound-free medium measured for 12 hrs by Western blot analysis; format: cell-based
[20] = biological target: T1, LC3/Epithelial discoidin domain-containing receptor 1; assay: Autophagosome tethering activity at DDR1 in human NCI-H23 cells assessed as induction of protein degradation at 1 uM measured for >48 hrs by Western blot analysis; format: cell-based
[21] = biological target: T1, LC3/Epithelial discoidin domain-containing receptor 1; assay: Autophagosome tethering activity at DDR1 in bafilomycin A1-treated human NCI-H23 cells assessed as induction of protein degradation at 1 uM incubated for 12 hrs by Western blot analysis; format: cell-based
[22] = biological target: T1, LC3/Epithelial discoidin domain-containing receptor 1; assay: Autophagosome tethering activity at DDR1 in chloroquine-treated human NCI-H23 cells assessed as induction of protein degradation at 1 uM incubated for 12 hrs by Western blot analysis; format: cell-based
[23] = biological target: T1, LC3/Epithelial discoidin domain-containing receptor 1; assay: Autophagosome tethering activity at DDR1 in rapamycin-treated human NCI-H23 cells assessed as induction of protein degradation at 0.3 uM incubated for 12 hrs by Western blot analysis; format: cell-based
[24] = biological target: T1, LC3/Epithelial discoidin domain-containing receptor 1; assay: Autophagosome tethering activity at DDR1 in human NCI-H23 cells assessed as induction of protein degradation at 10 uM incubated for 6 hrs by Western blot analysis; format: cell-based
[25] = biological target: T1, LC3/Epithelial discoidin domain-containing receptor 1; assay: Autophagosome tethering activity at DDR1 in human NCI-H23 cells assessed as induction of protein degradation at 10 uM incubated for 6 hrs by TMT-based global proteomic profiling analysis; format: cell-based
NCI-H23 [26] = assay: Downregulation of CDCA7 expression in human NCI-H23 cells at 10 uM incubated for 6 hrs by Western blot analysis; format: functional, cell-based
NCI-H23 [27] = assay: Downregulation of LIPA expression in human NCI-H23 cells at 10 uM incubated for 6 hrs by Western blot analysis; format: functional, cell-based
NCI-H23 [28] = assay: Downregulation of PPIC expression in human NCI-H23 cells at 10 uM incubated for 6 hrs by Western blot analysis; format: functional, cell-based
NCI-H23 [29] = assay: Downregulation of REEP3 expression in human NCI-H23 cells at 10 uM incubated for 6 hrs by Western blot analysis; format: functional, cell-based
NCI-H23 [30] = assay: Downregulation of RBM3 expression in human NCI-H23 cells at 10 uM incubated for 6 hrs by Western blot analysis; format: functional, cell-based
NCI-H23 [31] = assay: Downregulation of BNIP3 expression in human NCI-H23 cells at 10 uM incubated for 6 hrs by Western blot analysis; format: functional, cell-based
NCI-H23 [32] = assay: Downregulation of GOLM1 expression in human NCI-H23 cells at 10 uM incubated for 6 hrs by Western blot analysis; format: functional, cell-based
NCI-H23 [33] = assay: Downregulation of CDK4 expression in human NCI-H23 cells at 10 uM incubated for 6 hrs by Western blot analysis; format: functional, cell-based
NCI-H23 [34] = assay: Downregulation of EXO1 expression in human NCI-H23 cells at 10 uM incubated for 6 hrs by Western blot analysis; format: functional, cell-based
NCI-H23 [35] = assay: Inhibition of cell migration in human NCI-H23 cells at 0.3 uM incubated for 24 hrs by transwell assay; format: functional, cell-based
NCI-H23 [36] = assay: Inhibition of cell invasion in human NCI-H23 cells at 0.3 uM incubated for 24 hrs by transwell assay; format: functional, cell-based
NCI-H23 [37] = assay: Induction of apoptosis in human NCI-H23 cells assessed as increase in cleaved PARP level at 0.3 uM incubated for 24 hrs by Western blot analysis; format: functional, cell-based
NCI-H23 [38] = assay: Induction of apoptosis in human NCI-H23 cells assessed as increase in cleaved PARP level at 1 uM incubated for 24 hrs by Western blot analysis; format: functional, cell-based
NCI-H23 [39] = assay: Inhibition of tumorigenicity in human NCI-H23 cells at 0.1 to 1 uM incubated for 10 days by colony formation assay; format: functional, cell-based; details: dose 0.1-1 µM, time 10.0 day
[40] = Toxicity in Sprague-Dawley rat at 10 mg/kg, po or 2 mg/kg, iv measured up to 24 hrs by LC-MS/MS analysis; format: organism-based; details: in vivo
[41] = Toxicity in Sprague-Dawley rat assessed as drug tolerance at 10 mg/kg, po or 2 mg/kg, iv measured up to 24 hrs by LC-MS/MS analysis; format: organism-based; details: in vivo

With `CCc1ccc(C(=O)Nc2cc(CN3CCN(CCOCC(=O)NCCCN(C(=O)c4ccc(C)cc4)[C@@H](c4nc5cc(Cl)ccc5c(=O)n4Cc4ccccc4)C(C)C)CC3)cc(C(F)(F)F)c2)cc1C#Cc1cnc2ccnn2c1` as the compound, how does the Activity [1] read?
Its Activity is 40%.

And the DC50 [2]?
Its DC50 is 151 nM.

What about the Activity ([2]; dose 1-10000 nM) of the same compound?
Its Activity is “Dose-Dependent Effect”.

And the Activity [3]?
The Activity was “inactive”.

And the Activity [4]?
The Activity was “Tde”.

And the Activity [5]?
Its Activity is “Active”.

What about the Activity [6] of the same compound?
The Activity was “Active”.

What about the Activity (NCI-H23 [7]) of the same compound?
Its Activity is “inactive”.

What about the half-life [8] of the same compound?
Its half-life is 191 min.

What about the Tmax [9] of the same compound?
Its Tmax is 4.8 min.

What about the Cmax [10] of the same compound?
The Cmax was 27000 ng/mL.

What about the AUC(0-t) at 24 h [11] of the same compound?
Its AUC(0-t) at 24 h is 30100 ng·h/mL.

And the clearance [12]?
Its clearance is 1.11 mL/min/kg.

And the half-life [13]?
The half-life was 239 min.

What about the Tmax [14] of the same compound?
Its Tmax is 3.33 h.

And the Cmax [15]?
Its Cmax is 226 ng/mL.

What about the AUC(0-t) at 24 h [16] of the same compound?
Its AUC(0-t) at 24 h is 1150 ng·h/mL.

And the bioavailability [17]?
Its bioavailability is 0.77%.

And the Activity [18]?
Its Activity is “inactive”.

And the Activity [19]?
Its Activity is “Active”.

And the Activity [20]?
The Activity was “Active”.

What about the Activity [21] of the same compound?
Its Activity is “inactive”.

And the Activity [22]?
The Activity was “inactive”.

And the Activity [23]?
The Activity was “Active”.

What about the Activity [24] of the same compound?
Its Activity is “Active”.

What about the Activity [25] of the same compound?
Its Activity is “Active”.

And the Activity (NCI-H23 [26])?
The Activity was “Active”.

And the Activity (NCI-H23 [27])?
Its Activity is “Active”.

What about the Activity (NCI-H23 [28]) of the same compound?
The Activity was “Active”.

And the Activity (NCI-H23 [29])?
The Activity was “Active”.

And the Activity (NCI-H23 [30])?
The Activity was “Active”.

And the Activity (NCI-H23 [31])?
The Activity was “Active”.

And the Activity (NCI-H23 [32])?
The Activity was “Active”.

And the Activity (NCI-H23 [33])?
The Activity was “Active”.

And the Activity (NCI-H23 [34])?
Its Activity is “Active”.

And the inhibition (NCI-H23 [35])?
Its inhibition is “Active”.

And the inhibition (NCI-H23 [36])?
Its inhibition is “Active”.

What about the Activity (NCI-H23 [37]) of the same compound?
The Activity was “inactive”.

And the Activity (NCI-H23 [38])?
Its Activity is “Active”.

And the inhibition (NCI-H23 [39])?
Its inhibition is “Active”.

What about the Activity [40] of the same compound?
Its Activity is “Non-Toxic”.

And the Activity [41]?
The Activity was “Non-Toxic”.
